{"source": "patent US9585388B2", "about": "“Synergistically acting ternary antimicrobial mixtures” (SYMRISE AG, priority 2011, dated 2017)"}
{"tested_on": "Aspergillus niger ATCC 16404", "assay": "Test for adequate preservation (European Pharmacopoeia) in O/W emulsion, CFU reduction", "type": "cell-based", "details": "total concentration used 1 wt % in O/W emulsion, pH 5.5, initial CFU 1200000", "text": "In case of doubt, antimicrobial efficacy in the sense of this text is present when adequate preservation is established according to the European Pharmacopoeia (ISBN 3-7692-2768-9; Supplement 2001 to the 3rd Edition, page 421-422, chapter 5.1.3). The microbe preferably to be used is preferably Aspergillus niger ATCC16404. For further information on the procedure for testing for antimicrobial efficacy, reference is made in particular to example 1 given below.\nSynergistic intensification (of antimicrobial action) is present when the synergy index (SI value) of the test mixture according to Kull (literature: F. C. Kull et al., Applied Microbiology Vol. 9, p. 538-541 (1961); D. C. Steinberg, Cosmetics & Toiletries Vol. 115(11), 59-62 (2000)) gives a value <1. For further information on calculation of the synergy index, reference is again made to example 1 given below. Once again, the microbe preferably to be used for determining the synergy index is the strain of Aspergillus niger stated above.\nThe test for adequate preservation was carried out according to the European Pharmacopoeia. […]\nTo determine the potentially synergistically intensified efficacy of ternary mixtures containing 2-phenoxyethanol, 1,2-decanediol and 1,2-hexanediol, the CFU-reducing properties were determined according to the test procedure described in example 1 for the individual substances, for various binary mixtures and for ternary mixtures according to the invention.\nThe synergy index (SI values) of the ternary mixtures according to the invention and binary mixtures not according to the invention according to Kull (literature: F. C. Kull et al., Applied Microbiology Vol. 9, p. 538-541 (1961); D. C. Steinberg, Cosmetics & Toiletries Vol. 115(11), 59-62 (2000) was calculated using the following equations. SI=Z*D/A+Z*E/B Binary mixtures: SI=Z*D/A+Z*E/B+Z*F/C Ternary mixture: wherein: D, E, F: factor of proportion of the individual constituents (e.g. 70 wt %=factor 0.70) A, B, C: CFU of the individual substances at time point 48 h Z: CFU of the binary/ternary mixture at time point 48 h […]", "units": {"Aspergillus niger CFU after 48 h": "CFU"}}
{"smiles": "OCCOc1ccccc1", "note": "[product A, 2-phenoxyethanol]", "Aspergillus niger CFU after 48 h": 1100000}
{"smiles": "CCCCCCCCC(O)CO", "note": "(stereo not drawn) [product B, 1,2-decanediol]", "Aspergillus niger CFU after 48 h": 1200000}
{"smiles": "CCCCC(O)CO", "note": "(stereo not drawn) [product C, 1,2-hexanediol]", "Aspergillus niger CFU after 48 h": 1000000}
